Experimental data published in patent publication US20240252488A1 (KOREA RESEARCH INSTITUTE OF CHEMICAL TECHNOLOGY, priority 2020, published 2024).

Experiments:
FADD−/− Jurkat cells = test: Necroptosis inhibition assay, TNF-α-induced necroptosis (CellTiter-Glo 2.0); format: cell-based, human; details: TNF-α 15 ng/mL, FADD−/− Jurkat cells; for Necroptosis inhibition assay (Rescue %) 1 μM: compound 1 μM; for Necroptosis inhibition assay (Rescue %) 10 μM: compound 10 μM
Procedure, shortened: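 FADD−/− Jurkat cells preincubated 30 min at room temperature with compound at 0.1, 1 and 10 μM final, then stimulated with TNF-α (15 ng/mL final) for 20–24 h at 37 °C, 5% CO2. Viability read as ATP luminescence; cytotoxicity and necroptosis inhibition rate calculated from luminescence values.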

MLKL [1] = biological target: T1, MLKL (Homo sapiens, UniProt Q8NB16); test: MLKL degradation assay in HepG2 cell line (western blot); format: cell-based; set-up: endogenous in cells; host or cells: HepG2 or HaCaT; details: cell line not given; for Degradation assay (Degradation %) 1 μM: compound 1 μM; for Degradation assay (Degradation %) 10 μM: compound 10 μM
T1 sequence (Q8NB16 1-471): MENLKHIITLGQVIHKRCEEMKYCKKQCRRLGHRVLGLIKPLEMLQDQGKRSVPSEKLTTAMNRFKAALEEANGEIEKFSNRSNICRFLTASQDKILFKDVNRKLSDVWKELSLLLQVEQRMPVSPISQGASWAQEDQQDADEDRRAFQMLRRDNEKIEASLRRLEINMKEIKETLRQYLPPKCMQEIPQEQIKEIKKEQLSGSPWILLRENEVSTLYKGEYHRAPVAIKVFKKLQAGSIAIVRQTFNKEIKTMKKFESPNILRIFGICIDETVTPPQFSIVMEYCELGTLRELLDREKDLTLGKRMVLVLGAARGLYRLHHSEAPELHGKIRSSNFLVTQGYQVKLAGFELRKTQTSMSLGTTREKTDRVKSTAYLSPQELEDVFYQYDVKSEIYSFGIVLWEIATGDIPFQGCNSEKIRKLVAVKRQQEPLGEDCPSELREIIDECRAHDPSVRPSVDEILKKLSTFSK
Procedure, shortened: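 HepG2 cells were treated 20-24 h at 37 °C with compound at 1 or 10 μM final. RIPA lysates were normalized by BCA, and 10-15 μg protein per lane was resolved by SDS-PAGE. MLKL was detected by western blot with chemiluminescence.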

MLKL [2] = biological target: T1, MLKL; test: Measurement of binding affinity with MLKL receptor (competitive binding assay, Kd); set-up: made in house; host or cells: HEK 293 cell line (T7 phage in E. coli BL21-derived host is also described)
Procedure, shortened: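 MLKL was produced in HEK 293 cells and tagged with DNA for detection. Liganded beads were blocked with excess biotin and washed to cut non-specific binding, then compounds (111× DMSO stocks, 0.9% DMSO in assay) competed for binding. Eluate kinase was measured by qPCR for Kd.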

SMILES	Degradation assay (Degradation %) 1 μM (MLKL [1]) [%]	Degradation assay (Degradation %) 10 μM (MLKL [1]) [%]	Kd (MLKL [2]) [nM]	Necroptosis inhibition assay (Rescue %) 1 μM (FADD−/− Jurkat cells) [%]	Necroptosis inhibition assay (Rescue %) 10 μM (FADD−/− Jurkat cells) [%]
Nc1ncc(-c2cnn(C3CCN(C4CC5(CCN(CC6CCN(C(=O)CNc7ccc8c(c7)C(=O)N(C7CCC(=O)NC7=O)C8=O)CC6)CC5)C4)CC3)c2)nc1C(=O)O[C@@H](C(=O)Nc1ccc(F)cc1)c1ccccc1 (stereo partly drawn) [TDH-443, (R)-2-((4-fluorophenyl)amino)-2-oxo-1-phenylethyl 3-amino-6-(1-(1-(7-((1-((2-(2,6-dioxopiperidin-3-yl)-1,3-dioxoisoindolin-5-yl)glycyl)piperidin-4-yl)methyl)-7-azaspiro[3.5]nonan-2-yl)piperidin-4-yl)-1H-pyrazol-4-yl)pyrazine-2-carboxylate]	84.23	86.93	0.52	59.05	−65.46
COc1ccc(C(=O)N2CCC(CCN3CCC(n4cc(-c5cnc(N)c(C(=O)O[C@@H](C(=O)Nc6ccc(F)cc6)c6ccccc6)n5)cn4)CC3)CC2)cc1N1CCC(=O)NC1=O [TDH-446, (R)-2-((4-fluorophenyl)amino)-2-oxo-1-phenylethyl 3-amino-6-(1-(1-(2-(1-(3-(2,4-dioxotetrahydropyrimidin-1(2H)-yl)-4-methoxybenzoyl)piperidin-4-yl)ethyl)piperidin-4-yl)-1H-pyrazol-4-yl)pyrazine-2-carboxylate]	57.4	17.94	0.22	34.93	8.47
COc1ccc(C(=O)N2CCC(OCCN3CCC(n4cc(-c5cnc(N)c(C(=O)O[C@@H](C(=O)Nc6ccc(F)cc6)c6ccccc6)n5)cn4)CC3)CC2)cc1N1CCC(=O)NC1=O [TDH-448, (R)-2-((4-fluorophenyl)amino)-2-oxo-1-phenylethyl 3-amino-6-(1-(1-(2-((1-(3-(2,4-dioxotetrahydropyrimidin-1(2H)-yl)-4-methoxybenzoyl)piperidin-4-yl)oxy)ethyl)piperidin-4-yl)-1H-pyrazol-4-yl)pyrazine-2-carboxylate]	48.26	7.49	0.38	27.91	20.07
Nc1ncc(-c2cnn(C3CCN(CCc4cn(C5CCN(C(=O)CNc6ccc7c(c6)C(=O)N(C6CCC(=O)NC6=O)C7=O)CC5)nn4)CC3)c2)nc1C(=O)O[C@@H](C(=O)Nc1ccc(F)cc1)c1ccccc1 (stereo partly drawn) [TDH-452, (R)-2-((4-fluorophenyl)amino)-2-oxo-1-phenylethyl 3-amino-6-(1-(1-(2-(1-(1-((2-(2,6-dioxopiperidin-3-yl)-1,3-dioxoisoindolin-5-yl)glycyl)piperidin-4-yl)-1H-1,2,3-triazol-4-yl)ethyl)piperidin-4-yl)-1H-pyrazol-4-yl)pyrazine-2-carboxylate]	61.94	52.12	1.8	38.27	26.02
Nc1ncc(-c2cnn(C3CCN(CCCN4CC5CC4CN5C(=O)COc4ccc5c(c4)C(=O)N(C4CCC(=O)NC4=O)C5=O)CC3)c2)nc1C(=O)O[C@@H](C(=O)Nc1ccc(F)cc1)c1ccccc1 (stereo partly drawn) [TDH-453, (R)-2-((4-fluorophenyl)amino)-2-oxo-1-phenylethyl 3-amino-6-(1-(1-(3-(5-(2-((2-(2,6-dioxopiperidin-3-yl)-1,3-dioxoisoindolin-5-yl)oxy)acetyl)-2,5-diazabicyclo[2.2.1]heptan-2-yl)propyl)piperidin-4-yl)-1H-pyrazol-4-yl)pyrazine-2-carboxylate]	74.72	92.96	0.64	51.32	49.41
Nc1ncc(-c2cnn(C3CCN(CCCN4CC5CC4CN5C(=O)CNc4ccc5c(c4)C(=O)N(C4CCC(=O)NC4=O)C5=O)CC3)c2)nc1C(=O)O[C@@H](C(=O)Nc1ccc(F)cc1)c1ccccc1 (stereo partly drawn) [TDH-454, (R)-2-((4-fluorophenyl)amino)-2-oxo-1-phenylethyl 3-amino-6-(1-(1-(3-(5-((2-(2,6-dioxopiperidin-3-yl)-1,3-dioxoisoindolin-5-yl)glycyl)-2,5-diazabicyclo[2.2.1]heptan-2-yl)propyl)piperidin-4-yl)-1H-pyrazol-4-yl)pyrazine-2-carboxylate]	87.16	90.47	2	65.44	39.99
Nc1ncc(-c2cnn(C3CCN(CCCN4CC5CN(C(=O)COc6ccc7c(c6)C(=O)N(C6CCC(=O)NC6=O)C7=O)CC5C4)CC3)c2)nc1C(=O)O[C@@H](C(=O)Nc1ccc(F)cc1)c1ccccc1 (stereo partly drawn) [TDH-466, (R)-2-((4-fluorophenyl)amino)-2-oxo-1-phenylethyl 3-amino-6-(1-(1-(3-(5-(2-((2-(2,6-dioxopiperidin-3-yl)-1,3-dioxoisoindolin-5-yl)oxy)acetyl)hexahydropyrrolo[3,4-c]pyrrol-2(1H)-yl)propyl)piperidin-4-yl)-1H-pyrazol-4-yl)pyrazine-2-carboxylate]	60.76	86.28	0.41	54.2	26.69

More lines, in order of falling Kd (MLKL [2]), values ahead:

Degradation assay (Degradation %) 1 μM (MLKL [1]) [%]	Degradation assay (Degradation %) 10 μM (MLKL [1]) [%]	Kd (MLKL [2]) [nM]	SMILES	Necroptosis inhibition assay (Rescue %) 1 μM (FADD−/− Jurkat cells) [%]	Necroptosis inhibition assay (Rescue %) 10 μM (FADD−/− Jurkat cells) [%]
20.29	27.38	0.6	COc1ccc(C(=O)N2CCC(CN3CCC(n4cc(-c5cnc(N)c(C(=O)O[C@@H](C(=O)Nc6ccc(F)cc6)c6ccccc6)n5)cn4)CC3)CC2)cc1N1CCC(=O)NC1=O [TDH-445, (R)-2-((4-fluorophenyl)amino)-2-oxo-1-phenylethyl 3-amino-6-(1-(1-((1-(3-(2,4-dioxotetrahydropyrimidin-1(2H)-yl)-4-methoxybenzoyl)piperidin-4-yl)methyl)piperidin-4-yl)-1H-pyrazol-4-yl)pyrazine-2-carboxylate]	12.07	19.83
64.37	50.39	0.54	Nc1ncc(-c2cnn(C3CCN(CCc4cn(C5CCN(C(=O)COc6ccc7c(c6)C(=O)N(C6CCC(=O)NC6=O)C7=O)CC5)nn4)CC3)c2)nc1C(=O)O[C@@H](C(=O)Nc1ccc(F)cc1)c1ccccc1 (stereo partly drawn) [TDH-451, (R)-2-((4-fluorophenyl)amino)-2-oxo-1-phenylethyl 3-amino-6-(1-(1-(2-(1-(1-(2-((2-(2,6-dioxopiperidin-3-yl)-1,3-dioxoisoindolin-5-yl)oxy)acetyl)piperidin-4-yl)-1H-1,2,3-triazol-4-yl)ethyl)piperidin-4-yl)-1H-pyrazol-4-yl)pyrazine-2-carboxylate]	19.55	17.67
80.37	87.27	0.53	Nc1ncc(-c2cnn(C3CCN(C4CC5(CCN(CC6CCN(C(=O)COc7ccc8c(c7)C(=O)N(C7CCC(=O)NC7=O)C8=O)CC6)CC5)C4)CC3)c2)nc1C(=O)O[C@@H](C(=O)Nc1ccc(F)cc1)c1ccccc1 (stereo partly drawn) [TDH-442, (R)-2-((4-fluorophenyl)amino)-2-oxo-1-phenylethyl 3-amino-6-(1-(1-(7-((1-(2-((2-(2,6-dioxopiperidin-3-yl)-1,3-dioxoisoindolin-5-yl)oxy)acetyl)piperidin-4-yl)methyl)-7-azaspiro[3.5]nonan-2-yl)piperidin-4-yl)-1H-pyrazol-4-yl)pyrazine-2-carboxylate]	58.16	21.7
60.39	14.41	0.17	COc1ccc(C(=O)N2CCN(CCCN3CCC(n4cc(-c5cnc(N)c(C(=O)O[C@@H](C(=O)Nc6ccc(F)cc6)c6ccccc6)n5)cn4)CC3)CC2)cc1N1CCC(=O)NC1=O [TDH-447, (R)-2-((4-fluorophenyl)amino)-2-oxo-1-phenylethyl 3-amino-6-(1-(1-(3-(4-(3-(2,4-dioxotetrahydropyrimidin-1(2H)-yl)-4-methoxybenzoyl)piperazin-1-yl)propyl)piperidin-4-yl)-1H-pyrazol-4-yl)pyrazine-2-carboxylate]	33.69	14.38
